According to patent US11484601B2, “Targeting M2-like tumor-associated macrophages by using melittin-based proapoptotic peptide” (TWI[…]., priority 2018, dated 2022):

Legend:
[1] = MTS cell viability assay, M1-type macrophage; assay type: cell-based; conditions: mouse, RAW264.7 macrophages differentiated into M1-type with LPS, 0.6 to 0.8 μM
Experimental: (§1) More specifically, dKLA (SEQ ID NO: 2), MEL (SEQ ID NO: 1), MEL-dKLA (SEQ ID NO: 3; […]-d[KLAKLAKKLAKLAK]) peptide and 5-carboxyl tetramethylrhodamine (TMR)-conjugated dKLA, MEL and MEL-KLA peptides were purchased from GenScript (Piscataway, N.J., USA). TMR was conjugated with the amino group located at the N-terminal of the peptide. Regarding all of the peptides, 95% or greater purified peptides were used. Murine Lewis lung carcinoma (LLC) cells and macrophage RAW264.7 of mice were cultured in Dulbecco's modified Eagle's medium (DMEM; Welgene, Korea) to which 10% heat-inactivated fetal bovine serum (Welgene), 100 U/mL penicillin and 100 μg/mL streptomycin (Invitrogen, CA, USA) were added. Macrophage (RAW264.7) differentiated into M2-type was treated with IL-4 and IL-13 in the medium for 24 hours. After the treatment, the cells were cultured in a state in which serum was insufficient for 48 hours. M1-type macrophage was treated with 1 ng/mL of LPS for 24 hours to induce differentiation.
The cell viability test was measured via the MTS assay. RAW264.7 macrophage was differentiated into M1-type or M2-type macrophage which was inoculated onto a 96-well plate at 3×10^4 cells/well. The next day, the macrophage was treated with each of PBS, dKLA, MEL and MEL-dKLA. […] Then, fluorescence was measured at 490 nm to measure cell viability.

[2] = system: M1-type tumor-associated macrophage (CD45+F4/80+CD86+); test: Flow cytometry of tumor tissue, M1-type TAM; assay type: in vivo, mouse; conditions: MEL vs PBS and dKLA groups; MEL-dKLA vs MEL group
Experimental: More specifically, the tumor cells were thinly crushed and separated from each other in DMEM to which DNasel (1 U/mL) and collagenase D (1 mg/mL) were added. The tissue was gently agitated for 1 hour at 37° C., and separated using a […] nylon mesh filter. Red blood cells were dissolved in Phrmlyse buffer (BE bioscience). Individual cells passed through a 40-μm nylon mesh filter and then were stained with following antibodies: CD4+ T cell (CD45+CD4+CD8−), CD8+ T cell (CD45+CD4−CD8+), Foxp3+ regulatory T cell (CD4+CD25+Foxp3+), dendritic cell (CD45+CD11b+CD11c+), and M1 (CD45+F4/80+CD86+) or M2 macrophage (CD45+F4/80+CD206+): anti-CD45-FITC, anti-CD4-phycoerythrin (PE), anti-CD8-allophycocyanin (APC), anti-CD4-FITC, anti-CD25-PE, anti-Foxp3-Alexa Fluor647, anti-CD11b-APC, anti-CD11c-APCcy7, anti-Grl-PEcy7, anti-CD86-PEcy7, and anti-CD206-APC antibodies. Annexin-V was previously treated to measure the cell percentage of macrophages.

[3] = MTS cell viability assay, M2-type macrophage; assay type: cell-based, mouse; conditions: mouse, M2 macrophage, 0.6 to 0.5 μM, reaction for 24 hours
Experimental: as §1
(§2) The cell viability test was measured via the MTS assay. RAW264.7 macrophage was differentiated into M1-type or M2-type macrophage which was inoculated onto a 96-well plate at 3×10^4 cells/well. The next day, the macrophage was treated with each of PBS, dKLA, MEL and MEL-dKLA. After 24 hours, the culture solution was replaced and the cell was treated with 20 μL MTS reaction solution (Promega, WI, USA), followed by reaction at 37° C. Then, […] was measured at 490 nm to measure cell viability.
(§3) The MEL-DM1 anticancer drug conjugation method and cell test method are as described above.

[4] = system: M2 macrophage (RAW264.7 differentiated into M2-type with IL-4 and IL-13); test: MTS cell viability assay, M2-type macrophage; assay type: cell-based, mouse; conditions: 24 hours, read-out: half-maximal inhibitory concentration (IC50) against M2 macrophage
Experimental: as §1, §2, §3

## CC[C@H](C)[C@H](NC(=O)CN)C(=O)NCC(=O)N[C@@H](C)C(=O)N[C@H](C(=O)N[C@@H](CC(C)C)C(=O)N[C@@H](CCCCN)C(=O)N[C@H](C(=O)N[C@@H](CC(C)C)C(=O)N[C@H](C(=O)N[C@H](C(=O)NCC(=O)N[C@@H](CC(C)C)C(=O)N1CCC[C@H]1C(=O)N[C@@H](C)C(=O)N[C@@H](CC(C)C)C(=O)N[C@H](C(=O)N[C@@H](CO)C(=O)N[C@@H](Cc1c[nH]c2ccccc12)C(=O)N[C@H](C(=O)N[C@@H](CCCCN)C(=O)N[C@@H](CCCNC(=N)N)C(=O)N[C@@H](CCCCN)C(=O)N[C@@H](CCCNC(=N)N)C(=O)N[C@@H](CCC(N)=O)C(=O)N[C@@H](CCC(N)=O)C(N)=O)[C@@H](C)CC)[C@@H](C)CC)[C@@H](C)O)[C@@H](C)O)C(C)C)C(C)C [MEL]
[1]
  viability at 24 h: 74%
[2]
  F480+ CD86+ M1-type tumor-associated macrophage in tumor: slightly increased
[3]
  viability at 24 h: 71 to 79%
[4]
  IC50: 600 to 800 nM
